Experimental data taken from US9789072B2, “Therapeutic agents for use in the propylaxis and/or treatment of hyperkinetic movement disorders” (SOM INNOVATION BIOTECH, S.L., priority 2013, dated 2017).
Read-outs that look alike come from different tables or passages of the source.

Target: T1, VMAT2 (Rattus norvegicus, UniProt Q01827)
T1 construct: the VMAT2 present in isolated cerebral cortical vesicles; from tissue; host or cells: rat cerebral cortex, synaptic vesicles purified by differential centrifugation
Test: VMAT2 functional assay ([3H]-dopamine uptake into isolated vesicles)
Type: biochemical
Settings: rat cortical vesicles, [3H]-dopamine 30 nM, 30 min pre-incubation, 15 min uptake, room temperature
Method: VMAT2 Functional Assay determines the interaction between the compounds of the present invention and the VMAT2 present in isolated cerebral cortical vesicles.
Transporter Source: Rat cortical vesicles
Buffers: 100 mM potassium tartrate, 1.7 mM ascorbic acid, 0.05 mM EGTA, 0.1 mM EDTA, 2 mM Magnesium-ATP and 25 mM HEPES.
RadioLigand: • Monoamine: [3H]-Dopamine • Final ligand concentration: 30 nM
Vmax (transport rate): 1800 fmol/mg tissue/min
Positive reference-control: • Reserpine • Concentration: 10 μM
(1) Rat cortical vesicles were purified using differential centrifugation, and the vesicles obtained were diluted in the assay buffer and pre-incubated with the positive-reference-control, the comparative sample or a compound of the invention for 30 minutes at room temperature.
(2) Uptake begins with the addition of [3H]-dopamine and the mixture is allowed to incubate for 15 minutes at room temperature.
(3) After that time, the reaction was stopped by vacuum filtration, and the amount of radioactivity of the radiolabeled [3H]-dopamine trapped onto the filters was determined.
(4) The radioactivity of the [3H]-dopamine trapped was determined using liquid scintillation spectrophotometry (Beckman and Perkin Elmer). The amount of radioactivity obtained with the comparative sample or a compound of the invention was compared with the amount of radioactivity obtained with the positive-reference control (reserpine).
The IC50 value is converted to an absolute inhibition constant Ki using the Cheng-Prusoff equation. Two separate independent experiments were performed.

[1] = Experiment 1, read-out: IC50 (nM) Experiment 1

T1 sequence (Q01827 whole entry): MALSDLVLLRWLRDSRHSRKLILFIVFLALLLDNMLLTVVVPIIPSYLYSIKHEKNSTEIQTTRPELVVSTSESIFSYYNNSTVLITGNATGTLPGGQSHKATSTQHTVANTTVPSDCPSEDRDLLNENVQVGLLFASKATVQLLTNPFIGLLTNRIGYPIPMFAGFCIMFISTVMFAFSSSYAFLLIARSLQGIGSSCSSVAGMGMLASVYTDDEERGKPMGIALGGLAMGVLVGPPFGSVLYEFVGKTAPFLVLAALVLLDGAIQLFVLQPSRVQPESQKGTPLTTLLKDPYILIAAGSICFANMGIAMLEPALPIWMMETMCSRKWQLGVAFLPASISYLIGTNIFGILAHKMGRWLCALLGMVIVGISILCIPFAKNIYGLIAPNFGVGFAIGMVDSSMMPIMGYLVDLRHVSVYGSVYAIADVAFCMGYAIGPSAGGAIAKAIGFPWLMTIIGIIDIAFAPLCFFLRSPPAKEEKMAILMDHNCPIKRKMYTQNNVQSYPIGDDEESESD

IC50 [1] [nM]	IC50 (Experiment 2, read-out: IC50 (nM) Experiment 2) [nM]	Structure (SMILES)
42.8	63	COc1ccc(CCNCC(O)COc2cccc(C)c2)cc1OC (racemic) [Bevantolol (IA), (RS)-[2-(3,4-dimethoxyphenyl)ethyl][2-hydroxy-3-(3-methylphenoxy)propyl]amine]
44.6		C[C@@H](NCCCc1cccc(C(F)(F)F)c1)c1cccc2ccccc12 [Cinacalcet (IB)]

Structure (SMILES)	IC50 [1] [nM]	IC50 (Experiment 2, read-out: IC50 (nM) Experiment 2) [nM]
CC(COc1ccccc1)N(CCCl)Cc1ccccc1 (racemic) [Phenoxybenzamine (IC), (RS)—N-benzil-N-(2-chloroetyl)-1-phenoxy-propan-2-amine]	58.1	
